Test results reported in the supplement of paper PMC10307832.

Columns and labels:
Assay in all cases: relative viability (nuclei count vs DMSO), 5 days (fraction); higher = more cells survive
[1] = compound: CO[C@@H]1[C@H](N(C)C(=O)c2ccccc2)C[C@H]2O[C@]1(C)n1c3ccccc3c3c4c(c5c6ccccc6n2c5c31)C(=O)NC4 [Midostaurin] + Cc1cc(Nc2cc(N3CCN(C)CC3)nc(Sc3ccc(NC(=O)C4CC4)cc3)n2)n[nH]1 [Tozasertib] (partner 0.1 µM)
In short: (§1)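 Relative viability is defined as nuclei in treated wells over nuclei in vehicle wells. Duplicate plates were run and medians reported. Lung cancer cell lines in 1536-well plates were dosed by pin tool one day after seeding, with one drug or with a fixed anchor-drug dose plus five library-drug doses (not always all listed) in √10 steps, and nuclei were counted after 5 days.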

[2] = compound: CO[C@@H]1[C@H](N(C)C(=O)c2ccccc2)C[C@H]2O[C@]1(C)n1c3ccccc3c3c4c(c5c6ccccc6n2c5c31)C(=O)NC4 [Midostaurin] + COc1cccc2cc(-c3nc([C@H]4CC[C@H](C(=O)O)CC4)n4ncnc(N)c34)[nH]c12 [OSI-027] (partner 0.5 µM)
In short: as §1

[3] = compound: COc1cc(-c2nn([C@H]3CC[C@H](N4CCN(C(C)=O)CC4)CC3)c3ncnc(N)c23)ccc1NC(=O)c1cc2ccccc2n1C + CCNC(=O)c1noc(-c2cc(C(C)C)c(O)cc2O)c1-c1ccc(CN2CCOCC2)cc1 [Luminespib] (partner 0.01 µM)
In short: as §1

[4] = compound: COc1cc(-c2nn([C@H]3CC[C@H](N4CCN(C(C)=O)CC4)CC3)c3ncnc(N)c23)ccc1NC(=O)c1cc2ccccc2n1C + Cc1nc(NC(=O)N2CCC[C@H]2C(N)=O)sc1-c1ccnc(C(C)(C)C(F)(F)F)c1 [Alpelisib] (partner 2 µM)
In short: as §1

[5] = compound: CO[C@@H]1[C@H](N(C)C(=O)c2ccccc2)C[C@H]2O[C@]1(C)n1c3ccccc3c3c4c(c5c6ccccc6n2c5c31)C(=O)NC4 [Midostaurin] + NC(=O)Nc1cc(-c2cccc(F)c2)sc1C(=O)N[C@H]1CCCNC1 [AZD7762] (partner 0.2 µM)
In short: as §1

| Cell Line | relative viability ([1]; first compound 0.01 µM) | relative viability ([1]; first compound 0.03162 µM) | relative viability ([1]; first compound 0.1 µM) | relative viability ([1]; first compound 0.3162 µM) | relative viability ([2]; first compound 0.01 µM) | relative viability ([2]; first compound 0.03162 µM) | relative viability ([2]; first compound 0.1 µM) | relative viability ([2]; first compound 0.3162 µM) | relative viability ([3]; first compound 0.0128 µM) | relative viability ([3]; first compound 0.04048 µM) | relative viability ([3]; first compound 0.128 µM) | relative viability ([3]; first compound 1.28 µM) | relative viability ([4]; first compound 0.0128 µM) | relative viability ([4]; first compound 0.04048 µM) | relative viability ([4]; first compound 0.128 µM) | relative viability ([4]; first compound 1.28 µM) | relative viability ([5]; first compound 0.01 µM) | relative viability ([5]; first compound 0.03162 µM) | relative viability ([5]; first compound 0.1 µM) | relative viability ([5]; first compound 0.3162 µM) |
| --- | --- | --- | --- | --- | --- | --- | --- | --- | --- | --- | --- | --- | --- | --- | --- | --- | --- | --- | --- | --- |
| NCI-H1437 | 0.453 | 0.477 | 0.401 | 0.403 | 0.816 | 0.895 | 0.853 | 0.933 | 1.24 | 1.16 | 1.12 | 1.08 | 0.968 | 0.992 | 0.897 | 0.757 | 1.14 | 1.1 | 1.06 | 1.11 |
| NCI-H460 | 0.448 | 0.492 | 0.44 | 0.415 | 0.513 | 0.62 | 0.722 | 0.665 | 0.0282 | 0.0389 | 0.0319 | 0.0347 | 0.386 | 0.59 | 0.57 | 0.378 | 0.678 | 0.626 | 0.635 | 0.704 |
| NCI-H1666 | 0.629 | 0.572 | 0.596 | 0.488 | 0.8 | 0.794 | 0.883 | 0.903 | 0.926 | 0.994 | 1.01 | 1.04 | 0.981 | 0.864 | 0.921 | 0.769 | 0.881 | 0.804 | 0.911 | 0.778 |
| NCI-H1651 | 0.628 | 0.752 | 0.543 | 0.685 | 0.707 | 0.78 | 0.713 | 0.864 | 0.797 | 0.859 | 0.942 | 0.743 | 0.965 | 0.941 | 0.911 | 0.862 | 0.455 | 0.557 | 0.459 | 0.478 |
| NCI-H1755 | 0.521 | 0.614 | 0.535 | 0.547 | 0.74 | 0.677 | 0.678 | 0.483 | 0.501 | 0.418 | 0.48 | 0.308 | 1.04 | 0.992 | 0.884 | 0.656 | 0.492 | 0.422 | 0.447 | 0.402 |
| HARA | 0.142 | 0.0861 | 0.0946 | 0.0968 | 0.672 | 0.4 | 0.516 | 0.757 | 0.784 | 1.03 | 0.516 | 0.296 | 0.855 | 0.886 | 0.735 | 0.447 | 0.301 | 0.475 | 0.394 | 0.299 |
| NCI-H596 | 0.991 | 0.977 | 0.899 | 0.947 | 0.727 | 0.774 | 0.598 | 0.904 | 1.06 | 1.2 | 0.893 | 0.583 | 0.523 | 0.511 | 0.516 | 0.271 | 1.25 | 1.13 | 1.1 | 1.05 |
| NCI-H23 | 0.344 | 0.575 | 0.348 | 0.259 | 0.562 | 0.592 | 0.524 | 0.513 | 0.198 |  | 0.201 | 0.191 | 0.63 | 0.632 | 0.659 | 0.476 | 0.215 | 0.265 | 0.281 | 0.14 |
